# In patent US11059800B2, “Dehydroleucodine derivatives and uses thereof” (Bioventures, LLC, priority 2013, dated 2021):
# Tests used:
# NCI-H322M = test: Single dose tumor cell growth inhibition, Non-Small Cell Lung Cancer NCI-H322M; assay type: cell-based; details: single dose 10 μM
# Excerpt: (§1) DHL is cytotoxic to various leukemia, colon cancer, CNS cancer and prostate cancer cell lines.
# [1] = test system: normal bone marrow and peripheral blood mononuclear cells; details: 20 μM, 48 hours, AML n=8 vs normal n=4, Mann-Whitney p=0.004
# Experimental: The cells were seeded into 96-well plates and kept at a concentration of 0.5 million cells per mL. The samples were treated with DHL, Leucodine, DHL-Morpholine, DHL-Proline, DHL-Piperidine, and PTL at varying concentrations in triplicates. Cell viability was determined after incubating for 48 hours. The cells were stained with annexin V-fluorescein isothiocyanate or phycoeritrine (FITC/PE) and 7-aminoactinomycin (7-AAD) to detect phosphatidylserine exposition and cell permeability, respectively. At least 50,000 events were recorded per condition on either an LSR-II or LSR-Fortessa flow cytometer (BD Biosciences). Data analysis was conducted using FlowJo 9.6 software for Mac OS X (TreeStar). Cells that were negative for annexin V and 7-AAD were scored as viable.
# phospho-p65 = test: Western blot of phospho-p65 and total p65 in MOLM-13 cells; assay type: cell-based; details: 10 or 20 μM, 6 hours
# Experimental: (§2) (FIG. 8A) Graphical representation of the fold changes of HMOX-1 in MOLM-13 cells. Cells were seeded at 0.5 million cells per milliliter and subject to 20 μM of DHL, leucodine, DHL-proline, DHL-piperidine, DHL-morpholine, or parthenolide for 6 hours. RNA was then extracted and quantitative PCR was performed. Experiments were performed in triplicates. Lines represent mean for each specimen, with error bars representing the SD. Fold change was calculated by the delta-delta Ct method. […] (FIG. 8D) Immunoblot for MOLM-13 cells after 6 hours of treatment with either DHL or PTL with 10 or 20 μM. Blot was probed for phospho-p65 and p65 antibodies. Total p65 is shown as the loading control.
# U-937 = test: Cytotoxicity, annexin V/7-AAD viability by flow cytometry, U-937; assay type: cell-based, human; details: U-937, 48 hours, drug range tested 1.25-160 μM
# Experimental: (§3) In order to assess the structure-activity relationship of DHL and its derivatives, DHL and its derivatives were evaluated against eight human leukemia cell lines. Cell lines were cultured in Iscove's Modified Dulbecco's Medium (IMDM) supplemented with 10%˜20% fetal bovine serum (FBS) according to culture conditions indicated by ATCC and 1% penicillin/streptomycin (Pen/Strep) at 37° C. and 5% CO2. The cells were seeded into 96-well plates and kept at a concentration of 0.5 million cells per mL. The samples were treated with DHL, Leucodine, DHL-Morpholine, DHL-Proline, DHL-Piperidine, and PTL at varying concentrations in triplicates. Cell viability was determined after incubating for 48 hours. The cells were stained with annexin V-fluorescein isothiocyanate or phycoeritrine (FITC/PE) and 7-aminoactinomycin (7-AAD) to detect phosphatidylserine exposition and cell permeability, respectively. At least 50,000 events were recorded per condition on either an LSR-II or LSR-Fortessa flow cytometer (BD Biosciences). Data analysis was conducted using FlowJo 9.6 software for Mac OS X (TreeStar). Cells that were negative for annexin V and 7-AAD were scored as viable.
# THP-1 = test: Cytotoxicity, annexin V/7-AAD viability by flow cytometry, THP-1; assay type: cell-based, human; details: THP-1, 48 hours, drug range tested 1.25-160 μM
# Experimental: as §3
# SK-OV-3 = test: Single dose tumor cell growth inhibition, Ovarian Cancer SK-OV-3; assay type: cell-based; details: SK-OV-3, single dose 10 μM
# Excerpt: as §1
# KG-1 = test: Cytotoxicity, annexin V/7-AAD viability by flow cytometry, KG-1; assay type: cell-based, human; details: KG-1, 48 hours, drug range tested 1.25-160 μM
# Experimental: In order to assess the structure-activity relationship of DHL and its derivatives, DHL and its derivatives were evaluated against eight human leukemia cell lines. Cell lines were cultured in Iscove's Modified Dulbecco's Medium (IMDM) supplemented with 10%˜20% fetal bovine serum (FBS) according to culture conditions indicated by ATCC and 1% penicillin/streptomycin (Pen/Strep) at 37° C. and 5% CO2. […] Cell viability was determined after incubating for 48 hours.
# HOP-62 = test: Single dose tumor cell growth inhibition, Non-Small Cell Lung Cancer HOP-62; assay type: cell-based; details: HOP-62, single dose 10 μM
# Excerpt: as §1
# K-562 = test: Single dose tumor cell growth inhibition, Leukemia K-562; assay type: cell-based; details: K-562, single dose 10 μM
# Excerpt: as §1
# U251 = test: Single dose tumor cell growth inhibition, CNS Cancer U251; assay type: cell-based, human; details: U251, single dose 10 μM
# Excerpt: as §1
# NCI/ADR-RES = test: Single dose tumor cell growth inhibition, Ovarian Cancer NCI/ADR-RES; assay type: cell-based; details: single dose 10 μM
# Excerpt: as §1
# HSPA1A = test: Quantitative PCR of HSPA1A in MOLM-13 or MV-411 cells; assay type: cell-based; details: 20 μM, 6 hours, MOLM-13 and MV-411 cells
# Experimental: as §2
# (FIG. 9A) Graphical representation of the fold changes of HMOX-1 in MV-411 cells. Cells were seeded at 0.5 million cells per milliliter and subject to 20 μM of DHL, leucodine, DHL-proline, DHL-piperidine, DHL-morpholine, or parthenolide for 6 hours. RNA was then extracted and quantitative PCR was performed. Experiments were performed in triplicates. Lines represent mean for each specimen, with error bars representing the SD. Fold change was calculated by the delta-delta Ct method. (FIG. 9B) Graphical representation of the fold changes of HSPA1A in MV-411 cells, with the same experimental setup and analysis as FIG. […].
# To compare these intracellular effects of DHL and its derivatives, quantitative PCR was performed (FIG. 8 and FIG. 9). MOLM-13 or MV-411 cells were seeded at 0.5 million cells per milliliter. Cells were treated for 6 hours with 20 μM of DHL, Leucodine, DHL-Morpholine, DHL-Proline, DHL-Piperidine or PTL, and then collected. Total RNA was extracted using the Qiashredder and Qiagen Rneasy Mini kits. […] Quantitative PCR was performed using probes for HMOX-1 (Hs01110251_m1), HSPA1A (Hs00359163_s1), and NFKB1 (Hs00765730_m1). […] Single-plex real-time PCR was performed in triplicates in a StepOne plus RealTime PCR system and analyzed with the StepOne Software. Fold change was calculated using the 2-DDCT method described by Livak and Schmittgen.
# NCI-H460 = test: Single dose tumor cell growth inhibition, Non-Small Cell Lung Cancer NCI-H460; assay type: cell-based; details: NCI-H460, single dose 10 μM
# Excerpt: as §1
# HCT-116 = test: Single dose tumor cell growth inhibition, Colon Cancer HCT-116; assay type: cell-based, human; details: HCT-116, single dose 10 μM
# Excerpt: as §1
smiles,measurement,setting,value
"C=C1C(=O)O[C@@H]2[C@H]3C(C)=CC(=O)C3=C(C)CC[C@@H]12 [DHL, dehydroleucodine]",Percent inhibition,NCI-H322M,0.0%
same,potency to AML cell lines versus normal mononuclear cells,[1],significantly more potent to the AML cell lines
same,phospho-p65 level by Western blot,phospho-p65,significant decrease
same,LD50,U-937,18.95 µM
same,LD50,THP-1,16.82 µM
same,Percent inhibition,SK-OV-3,0.0%
same,LD50,KG-1,18.66 µM
same,Percent inhibition,HOP-62,0.0%
same,Percent inhibition,K-562,42.0%
same,Percent inhibition,U251,30.0%
same,Percent inhibition,NCI/ADR-RES,0.0%
same,"HSPA1A expression, fold change",HSPA1A,upregulated
same,Percent inhibition,NCI-H460,0.0%
same,Percent inhibition,HCT-116,41.3%
